From the NIST ThermoML archive (doi:10.1016/j.tca.2014.05.034)

Test: xn = mol fraction of the nth substance listed
Settings: 100 kPa, Liquid; for kinematic viscosity: Capillary tube (Ostwald / Ubbelohde) method; for mass density: Pycnometric method

NCCN [ethane-1,2-diamine] + OCCOCCO
Settings | kinematic viscosity, 298.15 K [m2/s] | kinematic viscosity, 303.15 K [m2/s] | kinematic viscosity, 308.15 K [m2/s] | kinematic viscosity, 313.15 K [m2/s] | kinematic viscosity, 318.15 K [m2/s] | mass density, 298.15 K [kg/m3] | mass density, 303.15 K [kg/m3] | mass density, 308.15 K [kg/m3] | mass density, 313.15 K [kg/m3] | mass density, 318.15 K [kg/m3]
x1 = 0.085 | 2.94e-05 | 2.32e-05 | 1.85e-05 | 1.54e-05 | 1.3e-05 | 1104.7 | 1101.3 | 1097.7 | 1094.3 | 1091
x1 = 0.164 | 3.37e-05 | 2.62e-05 | 2.07e-05 | 1.71e-05 | 1.43e-05 | 1096.3 | 1092.8 | 1089.4 | 1085.8 | 1082.5
x1 = 0.2376 | 3.68e-05 | 2.84e-05 | 2.22e-05 | 1.82e-05 | 1.51e-05 | 1087.5 | 1083.9 | 1080.3 | 1076.8 | 1073.4
x1 = 0.3062 | 3.81e-05 | 2.92e-05 | 2.27e-05 | 1.85e-05 | 1.53e-05 | 1078.1 | 1074.5 | 1070.8 | 1067.2 | 1063.6
x1 = 0.3705 | 3.7e-05 | 2.82e-05 | 2.19e-05 | 1.78e-05 | 1.47e-05 | 1068.3 | 1064.5 | 1060.8 | 1057.1 | 1053.4
x1 = 0.4308 | 3.36e-05 | 2.57e-05 | 2e-05 | 1.64e-05 | 1.35e-05 | 1057.7 | 1053.8 | 1050.1 | 1046.4 | 1042.8
x1 = 0.4874 | 2.87e-05 | 2.22e-05 | 1.74e-05 | 1.43e-05 | 1.19e-05 | 1046.5 | 1042.7 | 1039.1 | 1035.3 | 1031.7
x1 = 0.5407 | 2.31e-05 | 1.8e-05 | 1.44e-05 | 1.19e-05 | 1e-05 | 1034.6 | 1030.8 | 1027 | 1023.1 | 1019.5
x1 = 0.5909 | 1.81e-05 | 1.44e-05 | 1.15e-05 | 9.68e-06 | 8.16e-06 | 1022.5 | 1018.7 | 1015 | 1011.1 | 1007.4
x1 = 0.6384 | 1.4e-05 | 1.13e-05 | 9.35e-06 | 7.83e-06 | 6.79e-06 | 1010.7 | 1006.8 | 1003.1 | 999.3 | 995.4
x1 = 0.6834 | 1.06e-05 | 8.7e-06 | 7.27e-06 | 6.21e-06 | 5.45e-06 | 997.9 | 994 | 990 | 986.2 | 982.5
x1 = 0.7259 | 8.32e-06 | 6.95e-06 | 5.89e-06 | 5.07e-06 | 4.5e-06 | 986.3 | 982.6 | 978.9 | 975 | 971.2
x1 = 0.7663 | 6.39e-06 | 5.42e-06 | 4.66e-06 | 4.05e-06 | 3.65e-06 | 973.7 | 970.1 | 966 | 962.4 | 958.5
x1 = 0.8047 | 4.97e-06 | 4.27e-06 | 3.71e-06 | 3.28e-06 | 2.96e-06 | 961.5 | 957.5 | 953.3 | 949.5 | 945.9
x1 = 0.876 | 3.22e-06 | 2.84e-06 | 2.52e-06 | 2.26e-06 | 2.08e-06 | 938.1 | 934.4 | 930.4 | 926.6 | 922.9
x1 = 0.9408 | 2.23e-06 | 1.99e-06 | 1.8e-06 | 1.63e-06 | 1.52e-06 | 916.1 | 912.8 | 908.5 | 904.8 | 901.2
x1 = 1 | 1.56e-06 | 1.39e-06 | 1.27e-06 | 1.17e-06 | 1.08e-06 | 893.3 | 888.8 | 884.9 | 880 | 875.2
